From publication PMC5773580, “A synthetic combinatorial approach to disabling deviant Hedgehog signaling” (Scientific Reports, 2018)
“And” between values parts separate entries of the source, which are not always exact repeats. Identical values can stand only once.

Experiments:
[1] = test system: nuclear HDAC activity (Ac-H3) in NIH-3T3 cells; test: Acetylation assay, Western blotting for acetylated histone 3 (Ac-H3); type: cell-based; settings: 48hrs, Western blot
Description: For analyzing acetylation status of histone 3 and tubulin, NIH3T3 cells were grown to confluence in 6-well plates. After 48hrs of treatment with indicated chemicals, cells were lysed in RIPA buffer or 1% NP40/phosphate buffered saline/protease inhibitors (SIGMA, #S8820), the lysate cleared using a microcentrifuge, then 6 × sample loading buffer (Bioland Scientific) added to the supernatant. Proteins were separated on SDS-PAGE (BioRad Criterion TGX Precast Gels). Antibodies used for analyzing the blots were: acetylated tubulin (SIGMA, #T6793), tubulin, acetyl-histone H3 (Lys23), and histone H3 (Cell Signaling Technology, #2125 S, #8848 and #9717, respectively). Chemiluminescence was detected using a Li-COR Odyssey Imaging System.

HDAC10 = target: T1, HDAC10 (Homo sapiens, UniProt Q969S8); test: In vitro HDAC profiling (deacetylation assay), HDAC10; type: biochemical; settings: for HDAC Activity (Fluorescent counts): Repeat1/Repeat 2
T1 construct: purchased BPS Bioscience #50051-11
T1 sequence (Q969S8 1-669): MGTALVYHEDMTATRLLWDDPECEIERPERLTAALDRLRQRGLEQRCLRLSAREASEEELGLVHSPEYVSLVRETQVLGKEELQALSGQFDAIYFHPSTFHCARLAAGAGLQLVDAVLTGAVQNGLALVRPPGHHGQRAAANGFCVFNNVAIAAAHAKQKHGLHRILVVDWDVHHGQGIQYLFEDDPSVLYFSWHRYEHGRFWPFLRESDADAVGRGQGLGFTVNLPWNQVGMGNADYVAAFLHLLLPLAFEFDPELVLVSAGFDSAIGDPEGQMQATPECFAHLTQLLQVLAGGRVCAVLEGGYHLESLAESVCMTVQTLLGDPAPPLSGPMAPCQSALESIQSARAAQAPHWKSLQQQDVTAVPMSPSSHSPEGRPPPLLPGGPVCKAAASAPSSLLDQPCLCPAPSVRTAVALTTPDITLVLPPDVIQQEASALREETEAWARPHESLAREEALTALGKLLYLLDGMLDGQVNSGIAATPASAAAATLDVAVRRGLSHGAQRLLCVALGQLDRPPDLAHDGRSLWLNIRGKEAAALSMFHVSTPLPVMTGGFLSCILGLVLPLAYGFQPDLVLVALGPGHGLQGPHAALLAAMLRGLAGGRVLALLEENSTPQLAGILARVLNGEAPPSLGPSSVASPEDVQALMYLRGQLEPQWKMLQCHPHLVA
Description: (§1) HDAC profiling was performed at BPS Bioscience (San Diego, CA). All of the compounds are dissolved in DMSO. A series of dilutions of the compounds were prepared with 10% DMSO in HDAC assay buffer (#50031) and 5 µl of the dilution was added to a 50 µl reaction so that the final concentration of DMSO is 1% in all of reactions. All of the enzymatic reactions were conducted in duplicate at 37 °C for 30 mins, except that the enzyme reactions for HDAC11 were at room temperature for 3 hrs. All of the reactions were performed in a 50 µl mixture containing HDAC assay buffer, 5 µg BSA, an HDAC substrate [HDAC Substrate 3 (BPS number 50037) or HDAC Class 2a Substrate 1 (BPS number 50040)], an HDAC enzyme (#50051-11) and a test compound. After enzymatic reactions, 50 μl of HDAC Developer (#50030) was added to each well and the plate was incubated at room temperature for an additional 20 mins. Fluorescence intensity was measured at an excitation of 360 nm and an emission of 460 nm using a Tecan Infinite M1000 microplate reader. HDAC activity assays were performed in duplicates at each concentration. The fluorescent intensity data were analyzed using the computer software, Graphpad Prism. In the absence of the compound, the fluorescent intensity (Ft) in each data set was defined as 100% activity. In the absence of HDAC, the fluorescent intensity (Fb) in each data set was defined as 0% activity. The percent activity in the presence of each compound was calculated according to the following equation: %activity = (F − Fb)/(Ft − Fb), where F = the fluorescent intensity in the presence of the compound. The values of % activity versus a series of compound concentrations were then plotted using non-linear regression analysis of Sigmoidal dose-response curve generated with the equation Y = B + (T − B)/1 + 10((LogIC50 − X) × Hill Slope), where Y = percent activity, B = minimum percent activity, T = maximum percent activity, X = logarithm of compound and Hill Slope = slope factor or Hill coefficient. The IC50 value was determined by the concentration causing a half-maximal percent activity.

HDAC4 = target: T2, HDAC4 (Homo sapiens, UniProt P56524); test: In vitro HDAC profiling (deacetylation assay), HDAC4; type: biochemical; settings: for HDAC Activity (Fluorescent counts): Repeat1/Repeat 2
T2 construct: purchased BPS Bioscience #50051-11
T2 sequence (P56524 whole entry): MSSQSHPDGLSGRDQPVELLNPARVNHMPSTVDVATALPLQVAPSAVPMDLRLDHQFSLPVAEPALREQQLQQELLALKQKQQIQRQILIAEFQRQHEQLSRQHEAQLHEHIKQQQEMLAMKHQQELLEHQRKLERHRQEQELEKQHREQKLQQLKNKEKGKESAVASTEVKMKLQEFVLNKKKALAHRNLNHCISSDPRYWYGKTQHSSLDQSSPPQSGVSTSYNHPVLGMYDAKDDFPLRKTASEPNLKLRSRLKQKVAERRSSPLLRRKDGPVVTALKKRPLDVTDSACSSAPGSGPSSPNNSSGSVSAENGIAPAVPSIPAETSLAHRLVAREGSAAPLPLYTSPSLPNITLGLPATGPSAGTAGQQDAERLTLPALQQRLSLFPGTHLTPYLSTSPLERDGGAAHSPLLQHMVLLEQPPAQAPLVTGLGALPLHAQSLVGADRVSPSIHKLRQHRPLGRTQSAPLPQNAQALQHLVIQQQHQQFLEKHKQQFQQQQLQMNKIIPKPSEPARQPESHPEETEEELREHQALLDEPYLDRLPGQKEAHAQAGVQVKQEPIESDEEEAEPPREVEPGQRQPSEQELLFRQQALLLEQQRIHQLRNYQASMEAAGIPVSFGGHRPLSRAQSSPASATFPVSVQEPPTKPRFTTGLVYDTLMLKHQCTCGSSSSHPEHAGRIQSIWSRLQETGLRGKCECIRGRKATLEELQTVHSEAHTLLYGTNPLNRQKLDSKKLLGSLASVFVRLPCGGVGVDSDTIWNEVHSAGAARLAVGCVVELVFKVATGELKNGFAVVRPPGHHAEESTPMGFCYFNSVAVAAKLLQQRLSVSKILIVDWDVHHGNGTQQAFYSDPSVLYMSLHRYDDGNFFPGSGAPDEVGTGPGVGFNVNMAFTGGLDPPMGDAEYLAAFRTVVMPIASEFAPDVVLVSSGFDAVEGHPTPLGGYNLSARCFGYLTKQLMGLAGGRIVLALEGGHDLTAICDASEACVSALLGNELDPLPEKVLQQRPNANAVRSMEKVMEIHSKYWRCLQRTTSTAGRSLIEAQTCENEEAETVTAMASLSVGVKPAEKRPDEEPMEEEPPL
Description: as §1

HDAC2 = target: T3, HDAC2 (Homo sapiens, UniProt Q92769); test: In vitro HDAC profiling (deacetylation assay), HDAC2; type: biochemical; settings: for HDAC Activity (Fluorescent counts): Repeat1/Repeat 2
T3 construct: purchased BPS Bioscience #50051-11
T3 sequence (Q92769 whole entry): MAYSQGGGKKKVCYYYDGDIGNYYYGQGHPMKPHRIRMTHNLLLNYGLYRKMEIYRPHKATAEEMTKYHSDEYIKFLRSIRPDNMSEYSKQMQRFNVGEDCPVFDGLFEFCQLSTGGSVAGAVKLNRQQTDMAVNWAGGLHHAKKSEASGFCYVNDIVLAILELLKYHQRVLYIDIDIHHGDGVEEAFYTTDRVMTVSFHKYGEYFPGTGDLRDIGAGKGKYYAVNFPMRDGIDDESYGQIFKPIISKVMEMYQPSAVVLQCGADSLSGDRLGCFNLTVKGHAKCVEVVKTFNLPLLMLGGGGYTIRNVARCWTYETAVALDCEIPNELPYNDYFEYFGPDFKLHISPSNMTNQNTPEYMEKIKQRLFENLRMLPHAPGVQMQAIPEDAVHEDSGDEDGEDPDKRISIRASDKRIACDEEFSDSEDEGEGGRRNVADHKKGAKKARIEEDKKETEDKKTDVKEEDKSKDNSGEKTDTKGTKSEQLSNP
Description: as §1

[2] = in vitro deacetylation assay, duplicates

- IC50 (HDAC10; [2]): 0.174 µM
- IC50 (HDAC4; [2]): > 10 µM
- IC50 (HDAC2; [2]): 0.746 µM
SMILES: O=C(CCCCCCC(=O)Nc1ccc(Cl)c(C(=O)Nc2ccc(NC(=O)c3cc(Cl)ccc3Cl)cc2)c1)NO [IHR-SAHA]
- HDAC inhibitory activity, accumulation of acetylated histone 3 (ratio Ac-H3 to total H3) [1]: retain HDAC inhibitory activity
- HDAC Activity (Fluorescent counts) (HDAC10; HDAC10, WW01 0 Log nM): 21183 Fluorescent counts and 21616 Fluorescent counts
- HDAC Activity (Fluorescent counts) (HDAC10; HDAC10, WW01 0.5 Log nM): 20859 Fluorescent counts and 21260 Fluorescent counts
- HDAC Activity (Fluorescent counts) (HDAC10; HDAC10, WW01 1 Log nM): 19414 Fluorescent counts and 20650 Fluorescent counts
- HDAC Activity (Fluorescent counts) (HDAC10; HDAC10, WW01 1.5 Log nM): 17046 Fluorescent counts and 19100 Fluorescent counts
- HDAC Activity (Fluorescent counts) (HDAC10; HDAC10, WW01 2 Log nM): 13500 Fluorescent counts and 13556 Fluorescent counts
- HDAC Activity (Fluorescent counts) (HDAC10; HDAC10, WW01 2.5 Log nM): 9393 Fluorescent counts and 9233 Fluorescent counts
- HDAC Activity (Fluorescent counts) (HDAC10; HDAC10, WW01 3 Log nM): 6324 Fluorescent counts and 6307 Fluorescent counts
- HDAC Activity (Fluorescent counts) (HDAC10; HDAC10, WW01 3.5 Log nM): 4593 Fluorescent counts and 4402 Fluorescent counts
- HDAC Activity (Fluorescent counts) (HDAC10; HDAC10, WW01 4 Log nM): 3949 Fluorescent counts and 4170 Fluorescent counts
- HDAC Activity (Fluorescent counts) (HDAC10; HDAC10, WW01 -0.5 Log nM): 22257 Fluorescent counts and 21526 Fluorescent counts
- HDAC Activity (Fluorescent counts) (HDAC4; HDAC4, WW01 0 Log nM): 34281 Fluorescent counts and 35156 Fluorescent counts
- HDAC Activity (Fluorescent counts) (HDAC4; HDAC4, WW01 0.5 Log nM): 35257 Fluorescent counts and 33365 Fluorescent counts
- HDAC Activity (Fluorescent counts) (HDAC4; HDAC4, WW01 1 Log nM): 34132 Fluorescent counts and 32561 Fluorescent counts
- HDAC Activity (Fluorescent counts) (HDAC4; HDAC4, WW01 1.5 Log nM): 32307 Fluorescent counts and 33171 Fluorescent counts
- HDAC Activity (Fluorescent counts) (HDAC4; HDAC4, WW01 2 Log nM): 34170 Fluorescent counts and 33741 Fluorescent counts
- HDAC Activity (Fluorescent counts) (HDAC4; HDAC4, WW01 2.5 Log nM): 30594 Fluorescent counts and 30410 Fluorescent counts
- HDAC Activity (Fluorescent counts) (HDAC4; HDAC4, WW01 3 Log nM): 29955 Fluorescent counts and 29639 Fluorescent counts
- HDAC Activity (Fluorescent counts) (HDAC4; HDAC4, WW01 3.5 Log nM): 26541 Fluorescent counts and 27641 Fluorescent counts
- HDAC Activity (Fluorescent counts) (HDAC4; HDAC4, WW01 4 Log nM): 24902 Fluorescent counts and 23203 Fluorescent counts
- HDAC Activity (Fluorescent counts) (HDAC4; HDAC4, WW01 -0.5 Log nM): 34466 Fluorescent counts and 34397 Fluorescent counts
- HDAC Activity (Fluorescent counts) (HDAC2; HDAC2, WW01 0 Log nM): 25941 Fluorescent counts and 27493 Fluorescent counts
- HDAC Activity (Fluorescent counts) (HDAC2; HDAC2, WW01 0.5 Log nM): 25227 Fluorescent counts and 26727 Fluorescent counts
- HDAC Activity (Fluorescent counts) (HDAC2; HDAC2, WW01 1 Log nM): 25275 Fluorescent counts and 25129 Fluorescent counts
- HDAC Activity (Fluorescent counts) (HDAC2; HDAC2, WW01 1.5 Log nM): 23536 Fluorescent counts and 23240 Fluorescent counts
- HDAC Activity (Fluorescent counts) (HDAC2; HDAC2, WW01 2 Log nM): 22337 Fluorescent counts and 21686 Fluorescent counts
- HDAC Activity (Fluorescent counts) (HDAC2; HDAC2, WW01 2.5 Log nM): 18050 Fluorescent counts and 16002 Fluorescent counts
- HDAC Activity (Fluorescent counts) (HDAC2; HDAC2, WW01 3 Log nM): 12392 Fluorescent counts and 11718 Fluorescent counts
- HDAC Activity (Fluorescent counts) (HDAC2; HDAC2, WW01 3.5 Log nM): 9603 Fluorescent counts and 9800 Fluorescent counts
- HDAC Activity (Fluorescent counts) (HDAC2; HDAC2, WW01 4 Log nM): 7673 Fluorescent counts and 7404 Fluorescent counts
- HDAC Activity (Fluorescent counts) (HDAC2; HDAC2, WW01 -0.5 Log nM): 26601 Fluorescent counts and 28049 Fluorescent counts
